Test results taken from the NIST ThermoML archive (doi:10.1016/j.jct.2009.04.019).
“And” between values parts separate entries of the source, which are not always exact repeats. Identical values can stand only once. Numbers after ± are expanded uncertainties.

Conditions: Liquid, Transpiration method

C[C@H](O)CO [(+)-(S)-1,2-propanediol]
Conditions	vapor or sublimation pressure
283.5 K	0.00427 ± 0.00024 kPa
288.2 K	0.00685 ± 0.00038 kPa
293.5 K	0.01187 ± 0.00061 kPa and 0.00968 ± 0.00051 kPa
297.4 K	0.01371 ± 0.0015 kPa
298.2 K	0.01924 ± 0.0011 kPa
298.4 K	0.01891 ± 0.0011 kPa
301.3 K	0.025 ± 0.0013 kPa
301.4 K	0.01968 ± 0.001 kPa
303.3 K	0.02341 ± 0.0012 kPa
303.4 K	0.02968 ± 0.0015 kPa
305.4 K	0.02776 ± 0.0015 kPa
306.3 K	0.03848 ± 0.0021 kPa
306.4 K	0.0369 ± 0.0021 kPa
309.3 K	0.04816 ± 0.0025 kPa
310.4 K	0.05059 ± 0.0028 kPa and 0.04222 ± 0.0024 kPa and 0.04205 ± 0.0024 kPa
312.3 K	0.06434 ± 0.0034 kPa and 0.06424 ± 0.0034 kPa
313.2 K	0.06711 ± 0.0034 kPa
313.3 K	0.06784 ± 0.0034 kPa
313.4 K	0.05485 ± 0.0027 kPa
315.4 K	0.06624 ± 0.004 kPa
316.2 K	0.09048 ± 0.0049 kPa
316.3 K	0.08971 ± 0.0049 kPa and 0.0869 ± 0.0048 kPa
318.3 K	0.09934 ± 0.0052 kPa
318.4 K	0.08522 ± 0.0044 kPa
319.3 K	0.113 ± 0.0065 kPa
320.4 K	0.1173 ± 0.006 kPa and 0.09922 ± 0.0051 kPa
320.5 K	0.09891 ± 0.0051 kPa
321.3 K	0.1276 ± 0.0077 kPa
322.3 K	0.1391 ± 0.007 kPa
322.5 K	0.1397 ± 0.007 kPa
323.4 K	0.1284 ± 0.0064 kPa
323.5 K	0.1563 ± 0.0078 kPa and 0.1318 ± 0.0066 kPa
324.5 K	0.1349 ± 0.007 kPa
325.3 K	0.1747 ± 0.01 kPa and 0.1406 ± 0.0089 kPa
325.4 K	0.1734 ± 0.01 kPa
326.4 K	0.1847 ± 0.0092 kPa
326.5 K	0.1504 ± 0.0076 kPa
327.3 K	0.1676 ± 0.011 kPa
327.4 K	0.1988 ± 0.012 kPa
328.3 K	0.2178 ± 0.011 kPa
328.4 K	0.184 ± 0.01 kPa
328.5 K	0.1824 ± 0.0099 kPa
328.6 K	0.2155 ± 0.012 kPa
329.5 K	0.2399 ± 0.013 kPa
331.3 K	0.2757 ± 0.014 kPa
331.4 K	0.2346 ± 0.012 kPa
333.3 K	0.2616 ± 0.014 kPa
335.4 K	0.303 ± 0.016 kPa
338.4 K	0.3685 ± 0.019 kPa
